Results reported in PubChem BioAssay (NCI).
Values joined by “and” are separate entries in the source; they are usually repeats but may differ in a detail not shown here. Identical values can stand only once.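 Cultured in 96-well plates, cells were exposed to test compound for 48 hours across five concentrations. Abbreviation: GI50, concentration required for 50% inhibition of growth. The concentration for full growth arrest is given as TGI.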

Experiments:
Assay in all cases: growth of human tumour cells (NCI), 48 h
[1] = system: SK-MEL-5 melanoma
[2] = system: NCI-H226 lung
[3] = system: M14 melanoma
[4] = system: RXF 393 renal
[5] = system: HCT-116 colon
[6] = system: SF-295 CNS
[7] = system: TK-10 renal
[8] = system: OVCAR-4 ovarian
[9] = system: HCT-15 colon
[10] = system: HS 578T breast

Structure (SMILES)	GI50 [1]	TGI [1]	GI50 [2]	TGI [2]	GI50 [3]	TGI [3]	GI50 [4]	TGI [4]	GI50 [5]	TGI [5]	GI50 [6]	TGI [6]	GI50 [7]	TGI [7]	GI50 [8]	TGI [8]	TGI [9]	GI50 [9]	GI50 [10]	TGI [10]
O=C([CH-]C(=O)c1ccccc1)c1ccccc1.O=C([CH-]C(=O)c1ccccc1)c1ccccc1.O=C([CH-]C(=O)c1ccccc1)c1ccccc1.[Ga+3]	80.2 µM	> 100 µM	26.1 µM	> 100 µM	37.6 µM	> 100 µM	43.7 µM	> 100 µM	23.4 µM	> 100 µM	38.7 µM	> 100 µM	> 100 µM	> 100 µM	64.7 µM	> 100 µM				
O=C(O)/C=C/c1ccc(O)c(O)c1		> 100 µM		> 100 µM		> 100 µM		> 100 µM		> 100 µM		> 100 µM		> 100 µM		> 100 µM	> 100 µM			
O=c1nc2n(-c3cccc(Cl)c3)c3ccc([N+](=O)[O-])cc3cc-2c(=O)[nH]1	5.36 µM	12.8 µM	5.51 µM	13.6 µM	6.55 µM	16.8 µM	10.1 µM	> 25 µM	1.53 µM	5.68 µM	4.92 µM	10.9 µM	7.27 µM	13.9 µM	> 25 µM	> 25 µM	> 25 µM	9.28 µM		
COc1ccc(-c2csc3c2-n2cccc2C3=O)cc1	0.0236 µM		0.0174 µM						0.0199 µM	> 45.4 µM	0.0476 µM	> 75.5 µM		> 100 µM	2.58 µM	> 100 µM	> 100 µM	0.0276 µM	0.211 µM and 0.0224 µM	0.095 µM
CC(=O)C1(O)CC2(c3ccccc3)C(=O)C1(c1ccccc1)C(c1ccccc1)=C2c1ccccc1 (stereo not drawn)		> 100 µM		> 100 µM		> 100 µM		> 100 µM		> 100 µM		> 100 µM		> 100 µM		> 100 µM	> 100 µM			
COC(=O)c1cc2ccc(O)c(O)c2cn1		28.2 µM		36.8 µM		34.6 µM		32.7 µM		29.2 µM		33.6 µM		34.6 µM		21.7 µM	40.4 µM			
O=C(CCc1nnc2s/c(=C\c3ccc([N+](=O)[O-])cc3)c(=O)n12)Nc1ccc(Cl)c(Cl)c1		> 100 µM		37 µM		45 µM		34.6 µM		> 100 µM		58.4 µM		> 100 µM		35.1 µM	> 100 µM			
CC(=O)N1C/C(=C\c2ccccc2)C(=O)/C(=C/c2ccccc2)C1		12.9 µM		35.5 µM		17.9 µM		30.4 µM		5.9 µM		26.9 µM		34.8 µM		33.2 µM	23.7 µM			
CC(C)(CN1CCCCC1)C(=O)/C=C/c1ccccc1		25.8 µM		69.8 µM		34.7 µM		24.7 µM		28.6 µM		35.1 µM		30.5 µM		73.9 µM	67.2 µM			
NS(=O)(=O)c1ccc(N(/C=C/C(=O)C(F)(F)F)CC(=O)c2ccc(F)cc2)cc1			22.6 µM	40.9 µM			44 µM	> 100 µM	22.5 µM	> 100 µM	26.4 µM	85.7 µM	25.9 µM	> 100 µM	57.1 µM	> 100 µM	85.5 µM	23.6 µM		
C/C(=N/NC(=O)c1ccccc1S(N)(=O)=O)C(CN1CCCCC1)C(C1=C(O)C2C=CC=CC2OC1=O)c1ccccc1 (stereo not drawn)		> 100 µM		> 100 µM		> 100 µM		68.4 µM		> 100 µM		> 100 µM		> 100 µM		> 100 µM	> 100 µM			
Cn1cc(C2NC(=O)c3ccccc3N2)c2ccccc21 (stereo not drawn)		5.64 µM		3.59 µM		> 65.8 µM		0.704 µM		> 20.4 µM				> 100 µM		58.4 µM	8.48 µM			
O=C(/C=C/c1ccccc1)NC1C=Nc2ccc([N+](=O)[O-])cc2NC1=O (stereo not drawn)		> 100 µM		> 100 µM		> 100 µM		> 100 µM		> 100 µM		> 100 µM		> 100 µM		> 100 µM	> 100 µM			
C[C@@H]1C(=O)CC2C(C)(C)CCC[C@]2(C)[C@@]12CC[C@]1(C=COC1)O2 (stereo partly drawn)				> 100 µM		> 100 µM		56.3 µM		> 100 µM		> 100 µM				> 100 µM	> 100 µM			
Cc1c(C(Cc2ccccc2N(C)C(=O)/C=C\C(=O)O)c2c[nH]c3ccccc23)c2ccccc2n1C (stereo not drawn)		29.8 µM		43 µM		39.5 µM		27.3 µM		28.4 µM		28.8 µM		33.8 µM		55.5 µM	29.3 µM			
CC(C)=CCC/C(C)=C/CC/C(C)=C/CSC[C@H](NC(=O)CCCCCN1CCN(C)CC1)C(=O)NC1CCCCCC1	1.77 µM	3.18 µM	11.6 µM	38.4 µM	1.73 µM	3.43 µM			1.71 µM	3.16 µM	1.75 µM	3.38 µM	4.4 µM	9.11 µM	3.21 µM	13.1 µM	3.93 µM	1.94 µM	1.95 µM	4.53 µM
NC1=C(O)c2cccc3cccc(c23)C1=O		> 100 µM		> 100 µM		> 100 µM		> 100 µM		> 100 µM		> 100 µM		> 100 µM		> 100 µM	> 100 µM			
Cc1cc(N(CCC#N)CCC#N)ccc1/C=C(\NC(=O)/C=C/c1ccccc1)C(=O)N=[N+]=[N-]		> 100 µM		> 100 µM		> 100 µM		98.5 µM		> 100 µM		> 100 µM		> 100 µM			> 100 µM			
O=C(O)c1ccc(N(/C=C/C(=O)C(F)(F)F)Cc2ccc(Cl)cc2)cc1	25 µM	81.1 µM			22.7 µM	62.7 µM	46.3 µM	> 100 µM	20.5 µM	54.8 µM	26.6 µM	67 µM	27 µM	60.8 µM			59.7 µM	21.4 µM	26.4 µM	84.7 µM
